Laboratory results as given in patent publication US20210198613A1, “MICROELECTRODE ARRAY AND USES THEREOF” (AXOSIM, INC., priority 2018, published 2021).
Where two headings read alike, the source gives them in different places.

Columns and labels:
[1] = tested on: embryonic dorsal root ganglion (DRG) explants; conditions: cited from earlier work
[2] = tested on: neuronal cell death in vitro; conditions: cited from earlier work
[3] = tested on: embryonic dorsal root ganglion (DRG) explants; conditions: 40 μM, 48-hr application
[4] = tested on: embryonic dorsal root ganglion (DRG) explants; test: Nerve-On-A-Chip compound action potential (CAP) electrophysiology; format: cell-based, rat; conditions: 40 μM, 48-hr application

In the case of `NC1=N[C@H](O)[C@H]2[C@H]3O[C@]4(O)O[C@@H]([C@@H](O)[C@@]2(N1)[C@@H]4O)[C@]3(O)CO` [tetrodotoxin], the “effect on CAP population responses” value [1] is listed as “reversibly abolished”.

For `[CH3][Hg][Cl]` [Methylmercury], the “In Vitro Neurotoxic dose” value ([2]; literature value, used as acute 48-hr dose of the planned pilot study) is listed as 10 mM.

In the case of `C=C[C@@]1(C)CC(=O)[C@]2(O)[C@@]3(C)[C@@H](O)CCC(C)(C)[C@@H]3[C@H](O)[C@H](OC(C)=O)[C@@]2(C)O1` [forskolin], the dysmyelination by histology [3] is reported as “strong evidence of dysmyelination”, the “increase in G-ratio (thinning of myelin sheath)” value ([3]; histology, data not shown) is reported as 50% and the “reduction in % myelinated axons” value ([3]; histology, data not shown) is reported as 70%. The “reduction in CAP amplitude” value [4] was ~50% and the “reduction in conduction velocity” value [4] was ~50%.

For `CCCCCC` [n-hexane], the “In Vitro Neurotoxic dose” value [2] is listed as 765 mM.
